# Laboratory results reported in US9278071B2, “Organic compound nano-powder, method for producing the same and suspension” (Activus Pharma Co., Ltd., priority 2012, dated 2016).
# Assay: Particle size of the granular carbohydrate compounds used
# Assay type: physicochemical
# Conditions: granular carbohydrate compound as used
# Excerpt: The term “Dav” means an average particle diameter (Dav). In the table, the term “D10” means the particle diameter (D10 value) of the particle at the position of 10% when counted from the smallest size zero (minimum) to 100% (maximum) of the particle diameter in a particle diameter distribution. The term “D50” means a certain particle diameter (D50 value) when amount of a larger side becomes equal to amount of a smaller side of the particle diameters divided into two a powder from the certain particle diameter. The term “D90” means the particle diameter (D90 value) of the particle at the position of 90% when counted from the smallest size zero (minimum) to 100% (maximum) of the particle diameter in the particle diameter distribution. The same definitions shall apply to following tables.
Particle Size D10,Particle Size D50,Particle Size D90,Particle Size Dav,Compound
16 μm,38 μm,63 μm,38 μm,dextrin
116 μm,247 μm,496 μm,280 μm,"O[C@H]1[C@H](O)[C@@H](O)[C@H](O)[C@@H](O)[C@H]1O [Inositol, inositol]"
75 μm,154 μm,249 μm,159 μm,"OC[C@@H](O)[C@@H](O)[C@H](O)[C@@H](O)CO [Sorbitol, sorbitol]"
63 μm,138 μm,237 μm,147 μm,"OC[C@@H](O)[C@@H](O)CO [Erythritol, erythritol]"
7 μm,20 μm,50 μm,25 μm,"OC[C@H]1O[C@H](O[C@H]2O[C@H](CO)[C@@H](O)[C@H](O)[C@H]2O)[C@H](O)[C@@H](O)[C@@H]1O [Trehalose, trehalose]"
24 μm,66 μm,144 μm,79 μm,"OC[C@@H](O)[C@@H](O)[C@H](O)[C@H](O)CO [Mannitol, D-(−)-mannitol]"
7 μm,30 μm,64 μm,33 μm,"OC[C@@H](O)[C@@H](O[C@H]1O[C@H](CO)[C@@H](O)[C@H](O)[C@H]1O)[C@H](O)[C@@H](O)CO [Maltitol, maltitol]"
383 μm,615 μm,912 μm,631 μm,"OC[C@@H](O)[C@H](O)[C@@H](O)CO [Xylitol, xylitol]"
7 μm,38 μm,76 μm,41 μm,"O=C[C@H](O)[C@@H](O)[C@H](O[C@@H]1O[C@H](CO)[C@@H](O)[C@H](O)[C@H]1O)[C@H](O)CO [Cellobiose, cellobiose]"

Compound,Particle Size D10,Particle Size D50,Particle Size D90,Particle Size Dav
"O=C(CO)[C@@H](O)[C@H](O)[C@H](O)CO [Fructose, fructose]",158 μm,311 μm,566 μm,339 μm
"O.OC[C@H]1O[C@@H](O[C@H]2[C@H](O)[C@@H](O)C(O)O[C@@H]2CO)[C@H](O)[C@@H](O)[C@H]1O (stereo partly shown) [Lactose monohydrate, lactose monohydrate]",3 μm,20 μm,,45 μm

# Assay: Particle diameter distribution by dynamic light scattering photon correlation method (Delsa Nano)
# Assay type: physicochemical
# Conditions: starting organic compound powder before mixing/milling
# Excerpt: The term “average particle diameter” used in present specification means a mathematical average diameter (here, defined as the Dav value) in the particle diameter distribution as measured by a dynamic light scattering photon correlation method. The term “50%-diameter” (defined as median diameter or the D50 value) means a certain particle diameter when amount of a larger side becomes equal to amount of a smaller side of the particle diameters divided into two a powder from the certain particle diameter. The term “90%-diameter” (D90 value) means the particle diameter of the particle at the position of 90% when counted from the smallest size zero (minimum) to 100% (maximum) of the particle diameter in the particle diameter distribution as measured by the above-mentioned measurement method. The term “10%-diameter” (D10 value) means the particle diameter of the particle at the position of 10% when counted from the smallest size zero (minimum) to 100% (maximum) of the particle diameter in the particle diameter distribution as measured by the above-mentioned measurement method. […]
"Particle diameter distribution, D10, before milling","Particle diameter distribution, D50, before milling","Particle diameter distribution, D90, before milling","Particle diameter distribution, Dav (average particle diameter), before milling",Compound
1389 nm,2636 nm,5709 nm,3148 nm,"CC(=O)[C@@]1(O)CC[C@H]2[C@@H]3C[C@H](C)C4=CC(=O)C=C[C@]4(C)[C@@]3(F)[C@@H](O)C[C@@]21C [fluorometholone powder, fluorometholone]"
4422 nm,15070 nm,33850 nm,17270 nm,"COc1cc(/C=C/C(=O)CC(=O)/C=C/c2ccc(O)c(OC)c2)ccc1O [synthetic curcumin powder, curcumin]"
2277 nm,6872 nm,22850 nm,10160 nm,"CC[C@H]1OC(=O)[C@H](C)[C@@H](O[C@H]2C[C@@](C)(OC)[C@@H](O)[C@H](C)O2)[C@H](C)[C@@H](O[C@@H]2O[C@H](C)C[C@H](N(C)C)[C@H]2O)[C@](C)(OC)C[C@@H](C)C(=O)[C@H](C)[C@@H](O)[C@]1(C)O [clarithromycin powder, clarithromycin]"
